Measurements: PubChem BioAssay AID256 (DTP/NCI, 2004)
Inconclusive results and toxic doses are left out. How the source made its calls: active means survival T/C of 150% or more; inactive means T/C below 125% in these data.

Test system: CD2F1 mice, L1210 leukemia ip, survival T/C
Experiment: NCI In Vivo Anticancer Drug Screen. Data for tumor model L1210 Leukemia (intraperitoneal) in CD2F1 (CDF1) mice
Conditions: higher = longer survival
Outline: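 In this screen, transplantable tumors were grown in mice given either the compound or its vehicle. Results were expressed as the treated measurement relative to the control measurement.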

[1] = endpoint: mean survival time, dose: 100.0 mg/kg/injection, schedule: Q01DX001 (ip), vehicle: saline with Tween-80
[2] = endpoint: mean survival time, dose: 200.0 mg/kg/injection, schedule: Q01DX001 (ip), vehicle: saline with Tween-80
[3] = endpoint: mean survival time, dose: 400.0 mg/kg/injection, schedule: Q01DX001 (ip), vehicle: saline with Tween-80
[4] = endpoint: mean survival time, dose: 12.5 mg/kg/injection, schedule: Q01DX009 (ip), vehicle: saline with Tween-80
[5] = endpoint: mean survival time, dose: 12.5 mg/kg/injection, schedule: Q04DX003 (ip), vehicle: saline with Tween-80
[6] = endpoint: mean survival time, dose: 25.0 mg/kg/injection, schedule: Q01DX009 (ip), vehicle: saline with Tween-80
[7] = endpoint: mean survival time, dose: 50.0 mg/kg/injection, schedule: Q01DX009 (ip), vehicle: saline with Tween-80
[8] = endpoint: mean survival time, dose: 100.0 mg/kg/injection, schedule: Q04DX003 (ip), vehicle: saline with Tween-80
[9] = endpoint: mean survival time, dose: 200.0 mg/kg/injection, schedule: Q04DX003 (ip), vehicle: saline with Tween-80
[10] = endpoint: mean survival time, dose: 400.0 mg/kg/injection, schedule: Q04DX003 (ip), vehicle: saline with Tween-80
[11] = endpoint: mean survival time, dose: 100.0 mg/kg/injection, schedule: Q01DX009 (ip), vehicle: Klucel (hydroxypropylcellulose) (HPC)
[12] = endpoint: mean survival time, dose: 100.0 mg/kg/injection, schedule: Q01DX009 (ip), vehicle: saline with Tween-80
[13] = endpoint: mean survival time, dose: 200.0 mg/kg/injection, schedule: Q01DX009 (ip), vehicle: saline with Tween-80
[14] = endpoint: mean survival time, dose: 400.0 mg/kg/injection, schedule: Q01DX009 (ip), vehicle: saline with Tween-80

Measured: T/C

O=c1[nH]cc(F)c(=O)[nH]1.[Tl]
inactive: endpoint: mean survival time, dose: 1.5 mg/kg/injection, schedule: Q01DX009 (ip), vehicle: water 106 % of control | endpoint: mean survival time, dose: 3.1 mg/kg/injection, schedule: Q01DX009 (ip), vehicle: water 112 % of control | endpoint: mean survival time, dose: 6.25 mg/kg/injection, schedule: Q01DX009 (ip), vehicle: water 124 % of control | endpoint: mean survival time, dose: 12.5 mg/kg/injection, schedule: Q01DX009 (ip), vehicle: water 91 % of control

Cc1csc2nccc(Cl)c12
inactive: [1] 100 % of control | [2] 112 % of control | [3] 97 % of control

N/C(=N\OC(=O)Nc1ccc(CSc2ccc(Cl)cc2)o1)c1ccccn1
inactive: endpoint: median survival time, dose: 12.5 mg/kg/injection, schedule: Q01DX009 (ip), vehicle: Klucel (hydroxypropylcellulose) (HPC) 98 % of control | endpoint: median survival time, dose: 25.0 mg/kg/injection, schedule: Q01DX009 (ip), vehicle: Klucel (hydroxypropylcellulose) (HPC) 103 % of control | endpoint: median survival time, dose: 50.0 mg/kg/injection, schedule: Q01DX009 (ip), vehicle: Klucel (hydroxypropylcellulose) (HPC) 102 % of control | endpoint: median survival time, dose: 100.0 mg/kg/injection, schedule: Q01DX009 (ip), vehicle: Klucel (hydroxypropylcellulose) (HPC) 102 % of control | endpoint: median survival time, dose: 200.0 mg/kg/injection, schedule: Q01DX009 (ip), vehicle: Klucel (hydroxypropylcellulose) (HPC) 95 % of control

COC(OC)c1[nH]c(=S)[nH]c(=O)c1Cc1cccc(Cl)c1
inactive: endpoint: mean survival time, dose: 100.0 mg/kg/injection, schedule: Q04DX003 (ip), vehicle: saline sonified 95 % of control | endpoint: mean survival time, dose: 200.0 mg/kg/injection, schedule: Q04DX003 (ip), vehicle: saline sonified 101 % of control | endpoint: mean survival time, dose: 400.0 mg/kg/injection, schedule: Q04DX003 (ip), vehicle: saline sonified 108 % of control

CC(=O)NC1C(OC(C)=O)C(OC(C)=O)C(OC(C)=O)C(OC(C)=O)C1OC(C)=O (stereo not drawn)
inactive: [1] 97 % of control | [2] 93 % of control | [3] 93 % of control

N#CCC(=O)N/N=C/c1ccc2c(c1)CCC2
inactive: [4] 97 % of control | [5] 100 % of control | [6] 90 % of control | endpoint: mean survival time, dose: 25.0 mg/kg/injection, schedule: Q04DX003 (ip), vehicle: saline with Tween-80 97 % of control | [7] 90 % of control | endpoint: mean survival time, dose: 50.0 mg/kg/injection, schedule: Q04DX003 (ip), vehicle: saline with Tween-80 88 % of control

Cc1cc(C)c(/C=N/NC(=O)NN)c(C)c1
inactive: [8] 91 % of control | [9] 96 % of control | [10] 88 % of control

CCCCCCCCCCCCCCCCCCNC(=O)C[N+](C)(C)Cc1ccccc1
inactive: endpoint: mean survival time, dose: 6.25 mg/kg/injection, schedule: Q04DX003 (ip), vehicle: saline with Tween-80 103 % of control | [5] 97 % of control

CCCN1OC2CC/C=C\CCC2C1c1ccccc1 (stereo not drawn)
inactive: [11] 100 % of control | endpoint: mean survival time, dose: 100.0 mg/kg/injection, schedule: Q04DX003 (ip), vehicle: other 101 % of control | endpoint: mean survival time, dose: 200.0 mg/kg/injection, schedule: Q01DX009 (ip), vehicle: Klucel (hydroxypropylcellulose) (HPC) 100 % of control | endpoint: mean survival time, dose: 200.0 mg/kg/injection, schedule: Q04DX003 (ip), vehicle: other 107 % of control | endpoint: mean survival time, dose: 400.0 mg/kg/injection, schedule: Q01DX009 (ip), vehicle: Klucel (hydroxypropylcellulose) (HPC) 88 % of control | endpoint: mean survival time, dose: 400.0 mg/kg/injection, schedule: Q04DX003 (ip), vehicle: other 106 % of control

O=C(Nc1nccs1)c1ccc([N+](=O)[O-])cc1
inactive: [1] 95 % of control | [2] 88 % of control | [3] 100 % of control

Nc1nc(N)nc(C(=O)CCC(=O)O)n1
inactive: [7] 95 % of control | [12] 95 % of control | [13] 95 % of control

NC(N)=NOCC[C@@H](N)C(=O)O
inactive: endpoint: median survival time, dose: 25.0 mg/kg/injection, schedule: Q01DX009 (ip), vehicle: saline 102 % of control | endpoint: median survival time, dose: 50.0 mg/kg/injection, schedule: Q01DX009 (ip), vehicle: saline 101 % of control | endpoint: median survival time, dose: 100.0 mg/kg/injection, schedule: Q01DX009 (ip), vehicle: saline 98 % of control | endpoint: median survival time, dose: 200.0 mg/kg/injection, schedule: Q01DX009 (ip), vehicle: saline 103 % of control | endpoint: median survival time, dose: 400.0 mg/kg/injection, schedule: Q01DX009 (ip), vehicle: saline 102 % of control | endpoint: median survival time, dose: 500.0 mg/kg/injection, schedule: Q01DX001 (ip), vehicle: saline 97 % of control | endpoint: median survival time, dose: 750.0 mg/kg/injection, schedule: Q01DX001 (ip), vehicle: saline 96 % of control | endpoint: median survival time, dose: 1000.0 mg/kg/injection, schedule: Q01DX001 (ip), vehicle: saline 84 % of control | endpoint: median survival time, dose: 2500.0 mg/kg/injection, schedule: Q01DX001 (ip), vehicle: saline 97 % of control

Cc1c(Cl)c(Cl)c(Cl)c(-c2c(Cl)c(C)c(Cl)c(Cl)c2Cl)c1Cl
inactive: endpoint: mean survival time, dose: 100.0 mg/kg/injection, schedule: Q04DX003 (ip), vehicle: saline 102 % of control | endpoint: mean survival time, dose: 200.0 mg/kg/injection, schedule: Q04DX003 (ip), vehicle: saline 96 % of control | endpoint: mean survival time, dose: 400.0 mg/kg/injection, schedule: Q04DX003 (ip), vehicle: saline 98 % of control

OC(CC1=NNC(=S)NC1)(C(F)(F)F)C(F)(F)F
inactive: [7] 94 % of control | [12] 89 % of control

Cc1cc(C)c(O)c(C)c1C
inactive: endpoint: mean survival time, dose: 31.25 mg/kg/injection, schedule: Q01DX009 (ip), vehicle: saline 100 % of control | endpoint: mean survival time, dose: 62.5 mg/kg/injection, schedule: Q01DX009 (ip), vehicle: saline 91 % of control | endpoint: mean survival time, dose: 125.0 mg/kg/injection, schedule: Q01DX009 (ip), vehicle: saline 95 % of control | endpoint: mean survival time, dose: 250.0 mg/kg/injection, schedule: Q01DX009 (ip), vehicle: saline 93 % of control

O=[N+]([O-])/C=C\c1cc2c3c(c1)CCCN3CCC2
inactive: endpoint: mean survival time, dose: 3.13 mg/kg/injection, schedule: Q01DX009 (ip), vehicle: saline with Tween-80 105 % of control | endpoint: mean survival time, dose: 6.25 mg/kg/injection, schedule: Q01DX009 (ip), vehicle: saline with Tween-80 97 % of control | [4] 100 % of control | endpoint: mean survival time, dose: 50.0 mg/kg/injection, schedule: Q01DX001 (ip), vehicle: saline with Tween-80 105 % of control | [1] 103 % of control

C=CCCC(Cc1ccccc1)C1=NC(C)(C)CC(C)O1 (stereo not drawn)
inactive: endpoint: mean survival time, dose: 6.25 mg/kg/injection, schedule: Q01DX001 (ip), vehicle: saline 102 % of control | endpoint: mean survival time, dose: 12.5 mg/kg/injection, schedule: Q01DX001 (ip), vehicle: saline 96 % of control | endpoint: mean survival time, dose: 25.0 mg/kg/injection, schedule: Q01DX001 (ip), vehicle: saline 97 % of control

O=C(COc1ccccc1)NCc1ccc(Cl)cc1
inactive: [8] 98 % of control | [9] 98 % of control | [10] 96 % of control

CCCCCC(=O)N1CCCC1
inactive: [8] 98 % of control | [9] 98 % of control

CCCCCCCCCc1nc(N)nc(NCCCC)n1
inactive: endpoint: mean survival time, dose: 25.0 mg/kg/injection, schedule: Q01DX009 (ip), vehicle: Klucel (hydroxypropylcellulose) (HPC) 101 % of control | endpoint: mean survival time, dose: 50.0 mg/kg/injection, schedule: Q01DX009 (ip), vehicle: Klucel (hydroxypropylcellulose) (HPC) 112 % of control | [11] 108 % of control

O=C(Nc1ccccc1)Oc1ccc(OCc2ccccc2)cc1
inactive: [4] 94 % of control | [6] 90 % of control | [7] 92 % of control

CN(C)C(=S)Oc1c([N+](=O)[O-])cc([N+](=O)[O-])cc1C(C)(C)C
inactive: endpoint: mean survival time, dose: 100.0 mg/kg/injection, schedule: Q04DX002 (ip), vehicle: saline with Tween-80 91 % of control

CCCCCC/C=N\N=C(N)N
inactive: endpoint: mean survival time, dose: 75.0 mg/kg/injection, schedule: Q01DX001 (ip), vehicle: saline 103 % of control

Cn1cnc([N+](=O)[O-])c1SCC(=O)O
inactive: [4] 95 % of control | endpoint: mean survival time, dose: 12.5 mg/kg/injection, schedule: Q01DX009 (ip), vehicle: saline 109 % of control | [6] 98 % of control | endpoint: mean survival time, dose: 25.0 mg/kg/injection, schedule: Q01DX009 (ip), vehicle: saline 112 % of control | [7] 95 % of control | endpoint: mean survival time, dose: 50.0 mg/kg/injection, schedule: Q01DX009 (ip), vehicle: saline 109 % of control | [12] 98 % of control | endpoint: mean survival time, dose: 100.0 mg/kg/injection, schedule: Q01DX009 (ip), vehicle: saline 101 % of control | [13] 104 % of control | endpoint: mean survival time, dose: 200.0 mg/kg/injection, schedule: Q01DX009 (ip), vehicle: saline 104 % of control | [14] 98 % of control | endpoint: mean survival time, dose: 400.0 mg/kg/injection, schedule: Q01DX009 (ip), vehicle: saline 109 % of control

CCCCCCCCCCCCCCCCCCCCCC(=O)OC
inactive: [12] 102 % of control | [8] 89 % of control | [13] 103 % of control | [9] 90 % of control | [14] 100 % of control | [10] 87 % of control
